One data set concerns tardive dyskinesia. The conditions noted are these: patients with TD; cited from earlier work.
Data set [1] is described as follows: Hydrogen peroxide production assay (TCEP/DTNB, 96-well) in presence of Cu(II). The conditions noted are these: for effect of chelating agent on hydrogen peroxide production by Vitamin C and antipsychotics: FIG. 7. As for the experimental part: To determine whether antipsychotics themselves could be the source of peroxidation in TD, we measured hydrogen peroxide formation in vitro using a novel 96-well assay developed specifically for that purpose. The production of hydrogen peroxide is assayed by a modification of a published method (Han, J. C. and Han, G. Y., Anal. Biochem. 220:5-10 (1994); Han, J., et al., Anal. Biochem. 234:107-109 (1996)). […] Antipsychotics (10 μM) were assayed for hydrogen peroxide formation in PBS (pH 7.4) in the presence of 10 μM Cu(II).
Ten μM of antipsychotics and 10 μM of Cu(II) were co-incubated with 100 μM of a H2O2-trapping reagent, Tris(2-Carboxyethyl)-Phosphine Hydrochloride (TCEP), in PBS (pH 7.4) at 37° C. for 1 hour.

For the next data set, the system named is SOD and catalase. The note with it: rats, chronic treatment; cited from earlier work.
Another data set deals with rats. As to the kind of experiment: Rodent model of vacuous chewing (TD model). Format: in vivo, rat. The note with it: 24 weeks treatment, 12 weeks withdrawal, FIG. 12. Here is the method:
There are two major animal models of TD. The first is a primate model of antipsychotic-induced dyskinesia. Ten to thirty percents of Cebus or Maccaca monkeys will develop clinical dyskinesia after long-term antipsychotic treatment. The second is a rodent model of vacuous chewing. In the rodent model, when the animals are treated with antipsychotics, they develop vacuous chewing, whic phenomenological similarities to the orobuccofacial movement of TD. Only 30-60% of rats will develop vacuous chewing. The chewing movement is enhanced after the withdrawal of antipsychotic treatment. […] (FIG. 12.)

On to Vitamin E, for which, in the data set with tardive dyskinesia, the “effect on symptoms of TD” value is “reverses the symptoms of TD”.

Take `OCCN1CCN(CCCN2c3ccccc3Sc3ccc(C(F)(F)F)cc32)CC1` [fluphenazine]: the “dependence of hydrogen peroxide generation on copper concentration” value in data set [1] (FIG. 6) was “dependent on the concentration of copper”. Further, in data set [1] (dose response, FIG. 5), the “dependence of hydrogen peroxide generation on drug concentration” value is “concentration dependent”. Moreover, the “SOD and catalase activities in the nervous system” value in the data set with SOD and catalase was “cause a decrease in SOD and catalase activities”.

For `CN1CCN(C2=Nc3cc(Cl)ccc3Nc3ccccc32)CC1` [clozapine], in the data set on rats, the “induction of vacuous chewing” value was “only induce vacuous chewing in a small portion of the animals”.

`Cc1cc(-c2ccc(S(=O)(=O)O)cc2)c2ccc3c(-c4ccc(S(=O)(=O)O)cc4)cc(C)nc3c2n1` [bathocuproine disulfonate (BC), bathocuproine disulfonate]: the “effect of chelating agent on hydrogen peroxide production by Vitamin C and antipsychotics” value in data set [1] is “significantly attenuate the production of hydrogen peroxide”.

Turning to `NCCNCCNCCN` [triethylenetetramine (TETA), triethylenetetramine], the “effect of chelating agent on hydrogen peroxide production by Vitamin C and antipsychotics” value in data set [1] is listed as “significantly attenuate the production of hydrogen peroxide”.

Values taken from patent publication US20020084230A1, “Methods for screening drugs to predict tardive dyskinesia” (priority 1997, published 2002).
